# Measured values: ChEMBL document CHEMBL3414557, “Synthesis, molecular docking and Brugia malayi thymidylate kinase (BmTMK) enzyme inhibition study of novel derivatives of [6]-shogaol” (Eur J Med Chem, 2015)
# Calls of active or inactive are those of the source. The rule behind the calls is not given here.
# Molecular target: not listed separately
# Assay: (§1) Inhibition of Brugia malayi thymidylate kinase using dTMP substrate by spectrophotometric assay
row,Ki [µM],SMILES
1,40.6,CCCCCC(CC(=O)CCc1ccc(O)c(OC)c1)Nc1ccc(C)cn1 (centres undefined)
2,9.01,CCCCCC(CC(=O)CCc1ccc(O)c(OC)c1)n1cnc2c(N)ncnc21 (centres undefined)
3,10.8,CCCCC/C=C/C(=O)CCc1ccc(O)c(OC)c1 [SHOGAOL]
4,11.1,CCCCCC(CC(=O)CCc1ccc(O)c(OC)c1)Nc1ncccc1C (centres undefined)
5,44.4,CCCCCC(CC(=O)CCc1ccc(OC(=O)/C=C/c2ccc(F)cc2)c(OC)c1)n1cc(C)c(=O)[nH]c1=O (centres undefined)
6,21.6,CCCCCC(CC(=O)CCc1ccc(O)c(OC)c1)Nc1cc(C)ccn1 (centres undefined)
7,20.1,CCCCCC(CC(=O)CCc1ccc(OC(=O)c2ccc(OC)cc2)c(OC)c1)n1cc(C)c(=O)n(C(=O)c2ccc(OC)cc2)c1=O (centres undefined)
8,45.7,CCCCCC(CC(=O)CCc1ccc(OS(=O)(=O)c2ccc(C)cc2)c(OC)c1)n1cc(C)c(=O)[nH]c1=O (centres undefined)
9,6.57,CCCCCC(CC(=O)CCc1ccc(O)c(OC)c1)n1cc(C)c(=O)[nH]c1=O (centres undefined)
10,8.32,CCCCCC(CC(=O)CCc1ccc(O)c(OC)c1)n1cc(Br)c(=O)[nH]c1=O (centres undefined)
11,30.4,CCCCCC(CC(=O)CCc1ccc(OC(=O)c2ccc(Cl)nc2)c(OC)c1)Nc1cc(C)ccn1 (centres undefined)
12,66.1,CCCCCC(CC(=O)CCc1ccc(OS(C)(=O)=O)c(OC)c1)n1cc(C)c(=O)[nH]c1=O (centres undefined)
13,20.3,CCCCCC(CC(=O)CCc1ccc(OC(=O)c2ccco2)c(OC)c1)n1cc(C)c(=O)n(C(=O)c2ccco2)c1=O (centres undefined)

# Tested on: Brugia malayi
# Assay: as §1
row,inhibition,SMILES
1,inactive,CCCCCC(CC(=O)CCc1ccc(OC(=O)c2ccc(Cl)nc2)c(OC)c1)n1cc(C)c(=O)[nH]c1=O (centres undefined)
